Assay results as given in patent US12258376B2, “Fusion protein of DCTN1 protein with RET protein” (TAIHO PHARMACEUTICAL CO., LTD., priority 2017, dated 2025).

Experiments:
[1] = system: DCTN1-RET fusion gene-expressing NIH/3T3 cells; test: Cell growth inhibitory effect of siRNA, 3-dimensional cell culture; format: cell-based, mouse; conditions: 3-dimensional cell culture after siRNA treatment; no treatment 4.9 times, negative control siRNA 3.6 times; FIG. 8
Experimental: NIH/3T3 cells grow well under 2-dimensional cell culture conditions, but barely grow under 3-dimensional cell culture conditions. However, NIH/3T3 cells are also known to grow under 3-dimensional cell culture conditions when an oncogene is expressed in the cells. Thus, whether the DCTN1-RET fusion gene is an oncogene was confirmed using this character. DCTN1-RET fusion gene-expressing NIH/3T3 cells and NIH/3T3 cells were cultured at 37° C. in 5% CO2 in a 2-dimensional cell culture; and collected with trypsin, followed by counting the number of cells. To perform a 3-dimensional cell culture, a medium for 3-dimensional cell culture was prepared using an FCeM-series Preparation Kit (Nissan Chemical Industries, Ltd.), D-MEM (high glucose) (containing L-glutamine, phenol red, sodium pyruvate, and 1500 mg/L sodium hydrogen carbonate) (Wako), and newborn calf serum (NBCS) (Gibco). […] The day following seeding (day 1) and after 8 days from seeding (day 8), the luminescence level (counts per second: cps) was measured using a detection reagent for intracellular ATP luminescence (CellTiter-Glo 2.0 reagent, Promega) with a luminometer (EnSpire, PerkinElmer), and the result was determined to be the indicator for viable cell count. The cell growth rate was then calculated from the measurement result on day 1 and the measurement result on day 8 (N=3). […]
Subsequently, to confirm a cell growth inhibitory effect, cells were collected with trypsin from the wells without treatment and wells treated with siRNA, and the number of cells was counted. A 3-dimensional cell culture was then performed in the same manner as in Example 5, and on the day seeding was performed (day 0) and after 4 days from seeding (day 4), the number of viable cells was counted in the same manner as in Example 5. The growth rate of the cells was calculated from the measurement result on day 0 and the measurement result on day 4.

DCTN1-RET fusion protein = test: Inhibition of DCTN1-RET fusion protein expression by siRNA (western blotting); format: cell-based, human; conditions: siRNA treatment overnight, DCTN1-RET fusion gene-expressing NIH/3T3 cells, FIG. 7
[2] = system: DCTN1-RET fusion gene-expressing NIH/3T3 cells; test: In vitro cell growth assay, 3-dimensional cell culture, intracellular ATP luminescence (CellTiter-Glo 2.0); conditions: for GI50: Mus musculus, NIH3T3
[3] = molecular target: T1, phosphorylated RET in DCTN1-RET fusion gene-expressing NIH/3T3 cells (Homo sapiens, UniProt P07949); test: Inhibition of RET phosphorylation in DCTN1-RET fusion gene-expressing cells (western blotting); format: cell-based; conditions: 1000, 100 and 10 nmol/L, 1 hour incubation, FIG. 9
T1 construct: expressed in transfected cells; the other entry of the earlier key: Dctn1 (O08788, Dynactin subunit 1)
Experimental: The expression of DCTN1-RET fusion protein in the obtained DCTN1-RET fusion gene-expressing NIH/3T3 cells was confirmed by western blotting. Specifically, the medium was removed from the culture flask, followed by washing with PBS once. Sample Diluent Concentrate 2 (R&D Systems) containing a phosphatase inhibitor (Roche) and a protease inhibitor (Roche) was added to the culture flask, and the cell lysate was collected with a scraper. From the collected cell lysate, a protein sample was obtained by centrifugation. The protein sample was subjected to protein determination, and the protein concentration was adjusted to a prescribed concentration. […] After the membrane was washed with TBS-T, the protein was detected using a SuperSignal West Dura Extended Duration Substrate (Thermo Fisher) with an Amersham Imager 600 lumino image analyzer (GE Healthcare). The molecular weight of the detected protein was confirmed with Precision Plus Protein Kaleidoscope Prestained Protein Standards (Bio-Rad). As shown in FIG. 4a) and 4b), endogenous RET (150 and 175 kDa) was not detected when the anti-pRET antibody or the anti-RET antibody was used. […] Additionally, as shown in FIG. 4c), endogenous DCTN1 was detected at around 150 kDa in the use of the anti-DCTN1 antibody. […]

T1 sequence (P07949 with tags, fused parts or gaps with the stated changes): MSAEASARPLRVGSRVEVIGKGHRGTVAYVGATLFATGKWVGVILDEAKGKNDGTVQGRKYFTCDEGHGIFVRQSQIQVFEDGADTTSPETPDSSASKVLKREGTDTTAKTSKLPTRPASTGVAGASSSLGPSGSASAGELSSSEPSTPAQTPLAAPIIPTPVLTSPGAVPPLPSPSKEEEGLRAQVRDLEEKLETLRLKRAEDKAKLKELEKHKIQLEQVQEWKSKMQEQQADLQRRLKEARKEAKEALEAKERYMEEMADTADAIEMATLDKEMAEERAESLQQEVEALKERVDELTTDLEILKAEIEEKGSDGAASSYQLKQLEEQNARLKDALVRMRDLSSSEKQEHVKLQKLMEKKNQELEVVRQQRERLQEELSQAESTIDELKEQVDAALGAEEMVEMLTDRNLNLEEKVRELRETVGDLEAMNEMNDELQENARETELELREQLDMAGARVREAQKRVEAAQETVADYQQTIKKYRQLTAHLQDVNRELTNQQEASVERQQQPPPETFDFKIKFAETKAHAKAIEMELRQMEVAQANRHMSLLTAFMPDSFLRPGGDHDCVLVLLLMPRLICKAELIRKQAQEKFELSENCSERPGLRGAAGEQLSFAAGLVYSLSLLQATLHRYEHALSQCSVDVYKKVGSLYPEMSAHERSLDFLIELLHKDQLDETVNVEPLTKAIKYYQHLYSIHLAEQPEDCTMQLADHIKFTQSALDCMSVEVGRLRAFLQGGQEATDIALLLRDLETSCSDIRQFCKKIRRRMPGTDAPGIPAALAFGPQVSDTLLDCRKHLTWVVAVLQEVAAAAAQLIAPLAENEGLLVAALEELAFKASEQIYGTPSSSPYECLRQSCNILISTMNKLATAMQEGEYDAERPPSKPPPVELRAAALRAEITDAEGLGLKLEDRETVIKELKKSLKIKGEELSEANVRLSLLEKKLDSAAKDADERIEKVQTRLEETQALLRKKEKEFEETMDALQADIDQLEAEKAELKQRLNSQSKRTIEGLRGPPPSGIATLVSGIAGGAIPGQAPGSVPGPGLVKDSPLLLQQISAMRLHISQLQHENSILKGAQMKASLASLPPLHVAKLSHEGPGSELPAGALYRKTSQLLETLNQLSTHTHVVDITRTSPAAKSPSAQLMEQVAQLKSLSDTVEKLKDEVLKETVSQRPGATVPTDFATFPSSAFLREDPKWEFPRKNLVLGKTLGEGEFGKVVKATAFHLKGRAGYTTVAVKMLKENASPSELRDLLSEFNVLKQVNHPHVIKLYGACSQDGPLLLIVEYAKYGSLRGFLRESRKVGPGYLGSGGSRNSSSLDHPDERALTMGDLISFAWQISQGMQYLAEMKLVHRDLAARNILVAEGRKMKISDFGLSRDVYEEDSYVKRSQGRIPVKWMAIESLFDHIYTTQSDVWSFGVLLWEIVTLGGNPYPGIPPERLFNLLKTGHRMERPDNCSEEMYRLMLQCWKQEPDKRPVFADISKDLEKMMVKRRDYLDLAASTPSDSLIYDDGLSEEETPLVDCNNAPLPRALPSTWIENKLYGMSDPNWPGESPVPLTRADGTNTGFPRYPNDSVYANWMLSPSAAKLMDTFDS

Compound	growth: number of cells on day 4 relative to day 0 [1]	expression of the DCTN1-RET fusion protein (DCTN1-RET fusion protein)	GI50 [2] [nM]	also measured
CCACUGCUACCACAAGUUUTT (CCACUGCUACCACAAGUUUNN; listed as RNA, chemistry not given here) [RET siRNA3, siRNA targeting human RET]	3.7 times	not inhibited		
GGAUUGAAAACAAACUCUATT (GGAUUGAAAACAAACUCUANN; listed as RNA, chemistry not given here) [RET siRNA2, siRNA targeting human RET]	~2.4 times	inhibited		
COCc1ccc(NC(=O)c2c(C#CCN3CCOCC3)n(C3(C)CC3)c3ncnc(N)c23)cc1 [Compound 6, 4-amino-N-[4-(methoxymethyl)phenyl]-7-(1-methylcyclopropyl)-6-(3-morpholinopro-1-pyn-1-yl)-7H-pyrrolo[2,3-d]pyrimidine-5-carboxamide]			3.6	
COc1cc2nccc(Oc3ccc(NC(=O)C4(C(=O)Nc5ccc(F)cc5)CC4)cc3)c2cc1OC [Cabozantinib]			91.1	
COc1cc2nccc(Oc3ccc(NC(=O)NC4CC4)c(Cl)c3)c2cc1C(N)=O [Lenvatinib]			50.3	phosphorylated RET levels [3]: notably decreased; growth of DCTN1-RET fusion gene-expressing NIH/3T3 cells ([2]; result in words, as shown in Table 7): inhibited the growth
CACAUGUCAUCAAAUUGUATT (CACAUGUCAUCAAAUUGUANN; listed as RNA, chemistry not given here) [RET siRNA1, siRNA targeting human RET]	about 2.0 times	inhibited		
COc1cc2c(Nc3ccc(Br)cc3F)ncnc2cc1OCC1CCN(C)CC1 [Vandetanib]			68.7	
CCc1cc2c(cc1N1CCC(N3CCOCC3)CC1)C(C)(C)c1[nH]c3cc(C#N)ccc3c1C2=O [Alectinib]			> 1000	
